From ChEMBL document CHEMBL1130524, “An aromatic moiety is not essential for pharmacophore binding to sigma binding sites: Synthesis of N-alkylazacycloheptane derivatives as potent sigma ligands” (Bioorg Med Chem Lett, 1997)

Target: Sigma 2 receptor
Experiment: Inhibition of [3H]-DTG binding to Sigma opioid receptor type 2

| SMILES | Ki |
| --- | --- |
| CC1(C)C2CC[C@]1(C)CN(CCCC1CCCCC1)C2 | 0.56 nM |
| CC1(C)C2CC[C@]1(C)CN(CCC1CCCCCCC1)C2 | 0.33 nM |
| CC1(C)C2CC[C@@]1(C)CN(CC1CCCCC1)C2 | 3.54 nM |
| CC1(C)C2CC[C@]1(C)CN(CC1CCCCC1)C2 | 3.14 nM |
| CC1(C)C2CC[C@]1(C)CN(CCC1CCCC1)C2 | 0.7 nM |
| CC1(C)C2CC[C@]1(C)CN(CCC1C3CC4CC(C3)CC1C4)C2 (some centres not stated) | 0.77 nM |
| CC1(C)C2CC[C@]1(C)CN(C1CCCCC1)C2 | 1.1 nM |
| CC1(C)C2CC[C@]1(C)CN(CCCCC1CCCCC1)C2 | 6.79 nM |
| CC1(C)C2CC[C@]1(C)CN(CCC1CCCCC1)C2 | 0.28 nM |
| CC1(C)C2CC[C@@]1(C)CN(CCC1CCCCC1)C2 | 0.23 nM |
| CC1(C)C2CC[C@]1(C)CN(CCC1CCCCCC1)C2 | 0.25 nM |
| C=CCN1CC[C@@]2(C)c3cc(O)ccc3C[C@H]1[C@H]2C (racemic) | 14200 nM |
